From ChEMBL document CHEMBL3745697, “Identification of azabenzimidazoles as potent JAK1 selective inhibitors” (Bioorg Med Chem Lett, 2016)
Calls of active or inactive are those of the source. No cut-off for these calls is given here.

Tests used:
[1] = biological target: T1, Tyrosine-protein kinase JAK3 (Homo sapiens, UniProt P52333); experiment: Inhibition of N-terminal GST-fused recombinant JAK3 (781 to 1124 residues) (unknown origin) expressed in insect cells using 5FAM-GEEPLYWSFPAKKK-NH2 as substrate by microfluidic capillary electrophoresis method
T1 sequence (P52333 whole entry): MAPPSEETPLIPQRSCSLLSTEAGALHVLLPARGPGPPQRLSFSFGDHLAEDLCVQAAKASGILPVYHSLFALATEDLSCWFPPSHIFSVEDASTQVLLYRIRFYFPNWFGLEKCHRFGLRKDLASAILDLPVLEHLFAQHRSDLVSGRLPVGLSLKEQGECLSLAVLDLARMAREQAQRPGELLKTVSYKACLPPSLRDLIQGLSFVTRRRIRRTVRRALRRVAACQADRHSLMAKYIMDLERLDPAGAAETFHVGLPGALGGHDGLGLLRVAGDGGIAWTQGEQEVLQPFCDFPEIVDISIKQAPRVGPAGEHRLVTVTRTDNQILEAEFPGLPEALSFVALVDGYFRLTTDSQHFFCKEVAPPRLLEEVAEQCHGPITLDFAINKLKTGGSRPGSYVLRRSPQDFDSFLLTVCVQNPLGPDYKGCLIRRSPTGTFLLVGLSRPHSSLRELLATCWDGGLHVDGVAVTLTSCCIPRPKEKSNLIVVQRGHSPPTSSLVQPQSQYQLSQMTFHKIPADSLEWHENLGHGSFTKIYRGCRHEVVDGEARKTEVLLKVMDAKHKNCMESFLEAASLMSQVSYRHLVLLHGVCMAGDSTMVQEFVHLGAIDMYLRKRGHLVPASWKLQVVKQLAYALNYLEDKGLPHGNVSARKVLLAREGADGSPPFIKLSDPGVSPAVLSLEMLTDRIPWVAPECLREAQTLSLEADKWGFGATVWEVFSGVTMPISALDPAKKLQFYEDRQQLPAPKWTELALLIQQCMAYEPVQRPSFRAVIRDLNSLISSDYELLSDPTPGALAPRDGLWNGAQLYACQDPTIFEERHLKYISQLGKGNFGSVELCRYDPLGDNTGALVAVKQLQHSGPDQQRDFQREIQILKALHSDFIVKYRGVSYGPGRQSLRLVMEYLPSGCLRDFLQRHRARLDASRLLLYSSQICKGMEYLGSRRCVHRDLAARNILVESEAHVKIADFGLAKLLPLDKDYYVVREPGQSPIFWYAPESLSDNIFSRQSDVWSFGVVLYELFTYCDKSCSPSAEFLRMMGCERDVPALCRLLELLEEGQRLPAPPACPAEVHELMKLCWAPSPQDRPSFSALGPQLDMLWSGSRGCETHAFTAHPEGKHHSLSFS

[2] = biological target: T2, Tyrosine-protein kinase JAK2 (Homo sapiens, UniProt O60674); experiment: Inhibition of N-terminal GST-fused recombinant JAK2 (831 to 1132 residues) (unknown origin) expressed in insect cells using 5FAM-GEEPLYWSFPAKKK-NH2 as substrate by microfluidic capillary electrophoresis method
T2 sequence (O60674 whole entry, the tested form may be a part): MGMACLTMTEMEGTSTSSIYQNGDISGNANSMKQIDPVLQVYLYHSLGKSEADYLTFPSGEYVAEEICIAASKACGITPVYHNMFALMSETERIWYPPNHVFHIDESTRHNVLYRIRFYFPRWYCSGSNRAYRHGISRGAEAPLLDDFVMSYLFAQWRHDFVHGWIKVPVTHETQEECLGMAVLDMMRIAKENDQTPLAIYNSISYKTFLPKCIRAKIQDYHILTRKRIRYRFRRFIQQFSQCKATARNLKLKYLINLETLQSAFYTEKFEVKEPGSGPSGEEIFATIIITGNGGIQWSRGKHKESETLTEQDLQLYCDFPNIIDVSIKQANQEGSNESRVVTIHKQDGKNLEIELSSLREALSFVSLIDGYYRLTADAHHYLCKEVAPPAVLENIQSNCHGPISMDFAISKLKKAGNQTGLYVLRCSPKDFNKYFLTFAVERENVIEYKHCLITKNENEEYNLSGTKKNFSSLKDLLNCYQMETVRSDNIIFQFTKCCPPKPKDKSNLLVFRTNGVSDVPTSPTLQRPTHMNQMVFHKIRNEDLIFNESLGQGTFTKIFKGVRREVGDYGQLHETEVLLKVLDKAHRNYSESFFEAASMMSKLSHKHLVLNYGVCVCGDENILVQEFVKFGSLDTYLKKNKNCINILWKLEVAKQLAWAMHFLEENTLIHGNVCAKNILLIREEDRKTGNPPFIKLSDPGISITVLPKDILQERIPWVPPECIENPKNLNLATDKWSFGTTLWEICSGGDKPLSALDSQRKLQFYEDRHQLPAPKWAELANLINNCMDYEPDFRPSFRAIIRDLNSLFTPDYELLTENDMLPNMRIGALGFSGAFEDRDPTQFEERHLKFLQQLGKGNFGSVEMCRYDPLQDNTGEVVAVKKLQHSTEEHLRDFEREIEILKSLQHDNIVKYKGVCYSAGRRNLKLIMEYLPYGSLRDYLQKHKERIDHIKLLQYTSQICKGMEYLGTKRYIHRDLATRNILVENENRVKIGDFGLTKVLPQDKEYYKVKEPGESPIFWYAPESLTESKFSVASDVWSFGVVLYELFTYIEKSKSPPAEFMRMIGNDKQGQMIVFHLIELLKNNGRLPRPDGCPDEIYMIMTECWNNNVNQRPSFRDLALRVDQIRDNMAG

Homo sapiens = species: Homo sapiens; experiment: Selectivity ratio of IC50 for N-terminal GST-fused recombinant JAK2 (831 to 1132 residues) (unknown origin) to N-terminal GST-fused human recombinant JAK1 (866 to 1154 residues)
[3] = biological target: T3, Tyrosine-protein kinase JAK1 (Homo sapiens, UniProt P23458); experiment: Inhibition of N-terminal GST-fused human recombinant JAK1 (866 to 1154 residues) expressed in insect cells using FITC-C6-KKHTDDGYMPMSPGVA-NH2 as substrate by microfluidic capillary electrophoresis method
T3 sequence (P23458 whole entry, the tested form may be a part): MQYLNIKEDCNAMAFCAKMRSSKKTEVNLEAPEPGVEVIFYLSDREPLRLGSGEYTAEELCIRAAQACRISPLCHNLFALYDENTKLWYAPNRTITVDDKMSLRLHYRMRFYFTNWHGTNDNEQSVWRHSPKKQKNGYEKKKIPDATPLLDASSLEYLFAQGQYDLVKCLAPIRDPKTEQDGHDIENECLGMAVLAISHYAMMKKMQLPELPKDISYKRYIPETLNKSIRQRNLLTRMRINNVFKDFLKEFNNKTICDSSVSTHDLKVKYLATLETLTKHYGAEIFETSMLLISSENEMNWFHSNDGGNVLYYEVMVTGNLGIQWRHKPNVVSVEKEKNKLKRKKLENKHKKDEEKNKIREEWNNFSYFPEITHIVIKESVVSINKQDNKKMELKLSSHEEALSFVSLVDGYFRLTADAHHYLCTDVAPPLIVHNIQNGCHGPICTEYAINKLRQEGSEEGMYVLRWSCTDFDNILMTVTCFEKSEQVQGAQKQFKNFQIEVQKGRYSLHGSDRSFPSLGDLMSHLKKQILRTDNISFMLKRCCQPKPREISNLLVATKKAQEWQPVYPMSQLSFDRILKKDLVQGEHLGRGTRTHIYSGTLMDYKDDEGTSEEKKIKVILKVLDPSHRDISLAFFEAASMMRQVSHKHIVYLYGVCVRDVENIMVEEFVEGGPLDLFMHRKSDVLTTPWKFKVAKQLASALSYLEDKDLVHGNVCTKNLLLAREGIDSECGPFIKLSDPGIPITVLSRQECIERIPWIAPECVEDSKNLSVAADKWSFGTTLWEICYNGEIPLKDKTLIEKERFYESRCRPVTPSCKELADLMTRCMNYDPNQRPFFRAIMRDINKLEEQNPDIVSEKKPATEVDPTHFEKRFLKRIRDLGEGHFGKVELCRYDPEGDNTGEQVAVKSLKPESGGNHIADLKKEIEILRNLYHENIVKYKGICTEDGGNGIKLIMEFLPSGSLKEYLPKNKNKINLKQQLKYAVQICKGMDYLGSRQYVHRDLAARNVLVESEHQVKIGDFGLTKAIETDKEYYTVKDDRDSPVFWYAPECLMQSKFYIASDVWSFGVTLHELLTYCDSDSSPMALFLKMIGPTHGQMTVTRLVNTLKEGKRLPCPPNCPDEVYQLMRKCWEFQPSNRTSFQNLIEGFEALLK

[4] = biological target: T2, Tyrosine-protein kinase JAK2; experiment: Inhibition of JAK2 in human HEL 92.1.7 cells assessed as reduction in STAT5 phosphorylation after 2 hrs by Western blot analysis; assay type: cell-based
[5] = biological target: T3, Tyrosine-protein kinase JAK1; experiment: Inhibition of JAK1 in human NCI-H1975 cells assessed as reduction in STAT3 phosphorylation at 0.003 to 3 uM after 2 hrs by Western blot analysis; assay type: cell-based
[6] = biological target: T3, Tyrosine-protein kinase JAK1; experiment: Inhibition of JAK1 in human NCI-H1975 cells assessed as reduction in STAT3 phosphorylation after 2 hrs; assay type: cell-based
[7] = biological target: Non-receptor tyrosine-protein kinase TYK2 (Homo sapiens, UniProt P29597); experiment: Inhibition of N-terminal 6His-tagged human recombinant Tyk2
Sequence of Non-receptor tyrosine-protein kinase TYK2 (P29597 whole entry, the tested form may be a part): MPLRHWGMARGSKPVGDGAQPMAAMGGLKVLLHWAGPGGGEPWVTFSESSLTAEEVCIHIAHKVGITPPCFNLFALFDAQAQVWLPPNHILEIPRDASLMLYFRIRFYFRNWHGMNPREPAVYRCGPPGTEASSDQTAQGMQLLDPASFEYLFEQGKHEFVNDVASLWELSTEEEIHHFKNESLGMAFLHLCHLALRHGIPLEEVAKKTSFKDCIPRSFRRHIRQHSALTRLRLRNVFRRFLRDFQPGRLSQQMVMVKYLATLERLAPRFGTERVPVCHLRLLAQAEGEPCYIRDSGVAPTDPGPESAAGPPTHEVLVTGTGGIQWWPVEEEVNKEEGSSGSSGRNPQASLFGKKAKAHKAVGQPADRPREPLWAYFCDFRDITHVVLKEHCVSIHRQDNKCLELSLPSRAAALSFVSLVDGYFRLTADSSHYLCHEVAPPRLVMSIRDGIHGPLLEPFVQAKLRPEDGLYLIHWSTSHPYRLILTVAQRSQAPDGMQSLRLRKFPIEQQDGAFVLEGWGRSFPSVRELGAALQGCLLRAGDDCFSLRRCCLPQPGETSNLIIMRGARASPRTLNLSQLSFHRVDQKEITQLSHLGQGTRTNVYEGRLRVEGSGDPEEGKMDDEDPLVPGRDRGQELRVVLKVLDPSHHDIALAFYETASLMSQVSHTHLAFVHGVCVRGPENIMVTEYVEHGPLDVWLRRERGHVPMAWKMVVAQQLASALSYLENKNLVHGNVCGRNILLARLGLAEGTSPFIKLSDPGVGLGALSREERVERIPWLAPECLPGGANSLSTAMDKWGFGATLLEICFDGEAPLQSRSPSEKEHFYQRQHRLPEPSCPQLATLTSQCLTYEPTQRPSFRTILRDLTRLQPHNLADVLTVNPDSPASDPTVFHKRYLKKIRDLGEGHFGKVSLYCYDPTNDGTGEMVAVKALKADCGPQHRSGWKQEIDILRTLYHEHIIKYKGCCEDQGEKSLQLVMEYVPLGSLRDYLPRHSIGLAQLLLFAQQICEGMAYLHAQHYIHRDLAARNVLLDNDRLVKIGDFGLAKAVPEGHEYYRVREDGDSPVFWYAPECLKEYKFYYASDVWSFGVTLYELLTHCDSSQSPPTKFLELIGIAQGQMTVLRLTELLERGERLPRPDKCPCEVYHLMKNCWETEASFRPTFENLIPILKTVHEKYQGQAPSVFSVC

[8] = biological target: Cyclin-dependent kinase 2/cyclin E1 (Homo sapiens, UniProt P24941); experiment: Inhibition of N-terminal 6His-tagged human recombinant full length CDK2 (1 to 304 residues)/Cyclin E1 (1 to 410 residues) expressed in insect cells using FL-Ahx-QSPKKG-CONH2 as substrate by microfluidic capillary electrophoresis method
Aurora kinase B = Aurora kinase B (Homo sapiens, UniProt Q96GD4); experiment: Inhibition of GST-INCENP activated N-terminal 6His-tagged human recombinant full length Aurora B (1 to 344 residues) expressed in baculovirus expression system using 5FAM-LRRASLG as substrate by microfluidic capillary electrophoresis method
Sequence of Aurora kinase B (Q96GD4 whole entry, the tested form may be a part): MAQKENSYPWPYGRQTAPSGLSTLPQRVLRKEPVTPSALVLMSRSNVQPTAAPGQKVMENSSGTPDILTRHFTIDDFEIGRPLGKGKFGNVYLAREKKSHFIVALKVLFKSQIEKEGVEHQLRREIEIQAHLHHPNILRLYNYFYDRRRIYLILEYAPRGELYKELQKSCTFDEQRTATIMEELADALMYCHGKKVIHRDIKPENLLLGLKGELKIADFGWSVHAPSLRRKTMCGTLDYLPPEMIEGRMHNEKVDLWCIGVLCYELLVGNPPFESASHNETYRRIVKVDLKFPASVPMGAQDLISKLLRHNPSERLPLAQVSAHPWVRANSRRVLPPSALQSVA

[9] = Cell cycle arrest in human SW620 cells assessed as accumulation at G2/M phase at 10 uM after 24 hrs by propidium iodide staining-based flow cytometric analysis (reference value: 17.4%); assay type: functional; conditions: SW-620
[10] = Cell cycle arrest in human SW620 cells assessed as accumulation at Sub G1 phase at 1 uM after 24 hrs by propidium iodide staining-based flow cytometric analysis (reference value: 1.6%); assay type: functional; conditions: SW-620
[11] = Cell cycle arrest in human SW620 cells assessed as accumulation at G2/M phase at 1 uM after 24 hrs by propidium iodide staining-based flow cytometric analysis (reference value: 17.4%); assay type: functional; conditions: SW-620
[12] = Cell cycle arrest in human SW620 cells assessed as multi-nuclear cells at 10 uM after 24 hrs by propidium iodide staining-based flow cytometric analysis (reference value: 5%); assay type: functional; conditions: SW-620
[13] = Cell cycle arrest in human SW620 cells assessed as accumulation at G1 phase at 1 uM after 24 hrs by propidium iodide staining-based flow cytometric analysis (reference value: 61.4%); assay type: functional; conditions: SW-620
[14] = Cell cycle arrest in human SW620 cells assessed as accumulation at S phase at 10 uM after 24 hrs by propidium iodide staining-based flow cytometric analysis (reference value: 13.9%); assay type: functional; conditions: SW-620
[15] = Cell cycle arrest in human SW620 cells assessed as accumulation at G1 phase at 10 uM after 24 hrs by propidium iodide staining-based flow cytometric analysis (reference value: 61.4%); assay type: functional; conditions: SW-620
[16] = Cell cycle arrest in human SW620 cells assessed as accumulation at S phase at 1 uM after 24 hrs by propidium iodide staining-based flow cytometric analysis (reference value: 13.9%); assay type: functional; conditions: SW-620
[17] = Cell cycle arrest in human SW620 cells assessed as multi-nuclear cells at 1 uM after 24 hrs by propidium iodide staining-based flow cytometric analysis (reference value: 5%); assay type: functional; conditions: SW-620
[18] = Cell cycle arrest in human SW620 cells assessed as accumulation at Sub G1 phase at 10 uM after 24 hrs by propidium iodide staining-based flow cytometric analysis (reference value: 1.6%); assay type: functional; conditions: SW-620

| SMILES | IC50 [1] [µM] | IC50 [2] [µM] | Ratio IC50 (Homo sapiens) | IC50 [3] [µM] | further results |
| --- | --- | --- | --- | --- | --- |
| CN1CCC(CNc2c(Cl)cnc3[nH]c(-c4cccc(S(C)(=O)=O)c4)nc23)CC1 | > 30 | > 30 | > 6 | 4.91 | – |
| Cc1cc(Nc2nc(N[C@@H](C)c3ncc(F)cn3)ncc2Cl)[nH]n1 | – | – | – | – | inhibition [4]: Active; inhibition [5]: Active |
| COc1cccc(-c2nc3c(NCC4CCN(C)CC4)c(Cl)cnc3[nH]2)c1 | > 30 | 16.2 | 59 | 0.274 | – |
| COc1ccc(-c2nc3c(NCCO)c(Cl)cnc3[nH]2)cc1 | > 30 | > 30 | 2 | 5.23 | – |
| COCCNc1c(Cl)cnc2[nH]c(-c3ccc(OC)cc3)nc12 | > 30 | > 30 | > 14 | 2.1 | – |
| COc1ccc(-c2nc3c(NC4CCN(C)CC4)c(Cl)cnc3[nH]2)cc1 | 16.9 | 14.9 | 27 | 0.561 | – |
| COc1ccc(-c2nc3c(NCC4CCNCC4)c(Cl)cnc3[nH]2)c(F)c1 | 6.9 | 11.8 | 110 | 0.106 | IC50 [6]: 0.034 µM |
| COCCN1CCC(CNc2c(Cl)cnc3[nH]c(-c4ccc(OC)cc4)nc23)CC1 | > 30 | > 22 | > 28 | 0.801 | – |
| COc1cc(F)c(-c2nc3c(NCC4CCNCC4)c(Cl)cnc3[nH]2)cc1F | 7.47 | > 17 | > 99 | 0.173 | IC50 [6]: 0.071 µM |
| COc1ccc(-c2nc3c(OCC4CCNCC4)c(Cl)cnc3[nH]2)cc1 | 2.78 | 10.1 | 57 | 0.177 | – |
| COc1ccc(-c2nc3c(NCC4CCNCC4)c(Cl)cnc3[nH]2)cc1 | 1.13 | 1.45 | 85 | 0.017 | IC50 [6]: 0.029 µM |
| COc1ccc(-c2nc3c(NCC4CCNCC4)ccnc3[nH]2)cc1 | > 30 | > 30 | – | > 30 | – |
| COc1ccc(-c2nc3c(NCC4CCN(C)CC4)c(Cl)cnc3[nH]2)c(C)c1 | 6.6 | 2.7 | 75 | 0.036 | – |
| COc1ccc(-c2nc3c(NCC4CCNC4)c(Cl)cnc3[nH]2)cc1 (stereo not given) | > 22 | 13.9 | 70 | 0.199 | – |
| CNc1c(Cl)cnc2[nH]c(-c3ccc(OC)cc3)nc12 | > 30 | > 30 | – | > 30 | – |
| COc1ccccc1-c1nc2c(NCC3CCN(C)CC3)c(Cl)cnc2[nH]1 | > 30 | > 30 | 2 | 12.2 | – |

| SMILES | IC50 [1] [µM] | IC50 [2] [µM] | Ratio IC50 (Homo sapiens) | IC50 [3] [µM] | further results |
| --- | --- | --- | --- | --- | --- |
| COc1ccc(-c2nc3c(NCC4CCNCC4)c(Cl)cnc3[nH]2)cc1OC | 1.2 | 2.27 | 463 | 0.0049 | IC50 [7]: 1.28 µM; IC50 [8]: 0.057 µM; IC50 (Aurora kinase B): 0.016 µM; IC50 [6]: 0.087 µM |
| COc1ccc(-c2nc3c(NCC4CCN(C)CC4)c(C#N)cnc3[nH]2)cc1 | > 30 | > 30 | > 6 | 4.51 | – |
| CN1CCC(CNc2c(Cl)cnc3[nH]c(-c4cccc(F)c4)nc23)CC1 | > 30 | 16.2 | 19 | 0.832 | – |
| COc1ccc(-c2nc3c(N(C)CC4CCNCC4)c(Cl)cnc3[nH]2)cc1 | > 30 | > 30 | > 34 | 0.872 | – |
| COc1ccc(F)c(-c2nc3c(NCC4CCNCC4)c(Cl)cnc3[nH]2)c1 | 6.14 | 13.1 | 267 | 0.049 | IC50 [7]: 11.4 µM; IC50 [8]: 0.076 µM; IC50 (Aurora kinase B): 0.157 µM; IC50 [6]: 0.076 µM |
| COc1ccc(-c2nc3c(NCC4CCN(C)CC4)c(Cl)cnc3[nH]2)cc1 | > 30 | 9.62 | 30 | 0.317 | – |
| CN1CCC(CNc2c(Cl)cnc3[nH]c(-c4ccc(S(C)(=O)=O)cc4)nc23)CC1 | 27.6 | 2.78 | 8 | 0.356 | – |
| COc1ccc(-c2nc3c(NCC4CCNCC4)c(Cl)cnc3[nH]2)c(C)c1 | 1.54 | 2.89 | 314 | 0.009 | IC50 [6]: 0.037 µM |
| COc1ccc(-c2nc3c(NC4CCN(C(C)=O)CC4)c(Cl)cnc3[nH]2)cc1 | > 30 | > 30 | – | > 30 | – |
| COc1ccc(F)c(-c2nc3c(NCC4CCN(C)CC4)c(Cl)cnc3[nH]2)c1 | > 30 | > 30 | > 109 | 0.275 | – |
| COc1ccc(-c2nc3c(NCC4CCN(C)CC4)c(Cl)cnc3[nH]2)cc1OC | > 30 | 9.9 | 137 | 0.073 | – |
| COc1ccc(-c2nc3c(NCC4CCN(C)CC4)c(Br)cnc3[nH]2)cc1 | 19.2 | – | – | 0.177 | – |
| COc1ccc(-c2nc3c(NCC4CCCNC4)c(Cl)cnc3[nH]2)cc1 (stereo not given) | 5.75 | 3.04 | 22 | 0.138 | – |
| COc1ccc(-c2nc3c(NCC4CCN(C)CC4)c(C(N)=O)cnc3[nH]2)cc1 | 4.5 | 10.3 | 10 | 0.977 | – |
| Cc1cc(Nc2cc(N3CCN(C)CC3)nc(Sc3ccc(NC(=O)C4CC4)cc3)n2)n[nH]1 | – | – | – | – | Activity [9]: 60.3%; Activity [10]: 12.5%; Activity [11]: 57.3%; Activity [12]: 15.5%; Activity [13]: 2.6%; Activity [14]: 1.6%; Activity [15]: 4.5%; Activity [16]: 0.9%; Activity [17]: 26.6%; Activity [18]: 18.2% |
